According to US20250197436A1, “GALACTOOLIGOSACCHARIDE COMPOSITION” (priority 2022, published 2025):

Tested on: microbiota present in the faecal samples
Assay: Faecal fermentation, distribution of oligosaccharides (HPAEC-PAD peak areas)
From the text: HPAEC-PAD (high performance anion exchange chromatography) equipped with a PA-1 column was used for separation of mono- and oligosaccharides of the different samples. […] The samples as used for GPC were 100-fold diluted with DMSO before injection.
The distribution of oligosaccharides in the mixtures was also monitored over this time period using the method described above in relation to Table 2.

[1] = Comp. Ex. 1 sample, 6 h, Donor A
[2] = Comp. Ex. 1 sample, 6 h, Donor B
[3] = Comp. Ex. 1 sample, 6 h, Donor C
[4] = Comp. Ex. 1 sample, 24 h, Donor A
[5] = Comp. Ex. 1 sample, 24 h, Donor B
[6] = Comp. Ex. 1 sample, 24 h, Donor C
[7] = Comp. Ex. 1 sample, 48 h, Donor A
[8] = Comp. Ex. 1 sample, 48 h, Donor B
[9] = Comp. Ex. 1 sample, 48 h, Donor C
[10] = Example 2 sample, 24 h, Donor A
[11] = Example 2 sample, 24 h, Donor B
[12] = Example 2 sample, 24 h, Donor C
[13] = Example 2 sample, 48 h, Donor A
[14] = Example 2 sample, 48 h, Donor B
[15] = Example 2 sample, 48 h, Donor C

Row | Structure (SMILES) | Peak areas (Comp. Ex. 1 sample, 0 h) | Peak areas [1] | Peak areas [2] | Peak areas [3] | Peak areas [4] | Peak areas [5] | Peak areas [6] | Peak areas [7] | Peak areas [8] | Peak areas [9] | Peak areas (Example 2 sample, 0 h) | Peak areas (Example 2 sample, 6 h, Donor A) | Peak areas (Example 2 sample, 6 h, Donor B) | Peak areas (Example 2 sample, 6 h, Donor C) | Peak areas [10] | Peak areas [11] | Peak areas [12] | Peak areas [13] | Peak areas [14] | Peak areas [15]
1 | OC[C@H]1O[C@@H](O[C@@H]2[C@H](O)[C@@H](O)[C@H](O[C@H]3[C@H](O)[C@@H](O)C(O)O[C@@H]3CO)O[C@@H]2CO)[C@H](O)[C@@H](O)[C@H]1O (stereo partly drawn) [Cpd. ID 11, D-Gal-(β1-4)-D-Gal-(β1-4)-D-Glu] | 27.6 | 1.9 | 5.7 | 1.6 | 1.9 | 2.0 | 0.7 | 0.0 | 1.9 | 0.2 | 20.4 | 3.2 | 4.5 | 1.6 | 1.2 | 1.7 | 0.5 | 0.3 | 2.6 | 0.6
2 | OC[C@H]1O[C@@H](O[C@H]2[C@@H](O)[C@@H](CO)O[C@@H](O[C@H]3[C@H](O)[C@@H](O)C(O)O[C@@H]3CO)[C@@H]2O)[C@H](O)[C@@H](O)[C@H]1O (stereo partly drawn) [Cpd. ID 12, D-Gal-(β1-3)-D-Gal-(β1-4)-D-Glu] | 1.4 | 1.4 | 0.8 | 0.9 | 0.4 | 0.4 | 0.4 | 0.1 | 1.1 | 0.1 | 28.9 | 1.1 | 5.4 | 1.2 | 0.4 | 0.7 | 0.3 | 0.3 | 0.7 | 0.2
3 | OC[C@H]1O[C@@H](O[C@H]2[C@@H](O)[C@@H](CO)O[C@@H](O[C@H]3[C@H](O)[C@@H](CO)OC(O)[C@@H]3O)[C@@H]2O)[C@H](O)[C@@H](O)[C@H]1O (stereo partly drawn) [Cpd. ID 29, D-Gal-(β1-3)-D-Gal-(β1-3)-D-Glu] | 4.7 | 0.1 | 2.0 | 1.0 | 0.2 | 0.4 | 0.0 | 0.0 | 0.3 | 0.0 | 12.8 | 1.1 | 2.0 | 0.4 | 0.0 | 0.0 | 0.0 | 0.1 | 0.4 | 0.1
4 | OC[C@H]1O[C@@H](O[C@H]2[C@@H](O)[C@@H](CO)O[C@@H](O[C@H]3C(O)O[C@H](CO)[C@@H](O)[C@@H]3O)[C@@H]2O)[C@H](O)[C@@H](O)[C@H]1O (stereo partly drawn) [Cpd. ID 30, D-Gal-(β1-3)-D-Gal-(β1-2)-D-Glu] | 2.6 | 0.0 | 1.3 | 0.3 | 0.0 | 0.5 | 0.0 | 0.0 | 0.6 | 0.0 | 12.6 | 0.0 | 1.8 | 0.9 | 0.0 | 0.5 | 0.0 | 0.1 | 0.0 | 0.2
5 | OC[C@H]1O[C@@H](O[C@H]2[C@@H](O)[C@@H](CO)O[C@@H](O[C@H]3[C@@H](O)[C@@H](CO)O[C@@H](O[C@H]4[C@H](O)[C@@H](O)C(O)O[C@@H]4CO)[C@@H]3O)[C@@H]2O)[C@H](O)[C@@H](O)[C@H]1O (stereo partly drawn) [Cpd. ID 31, D-Gal-(β1-3)-D-Gal-(β1-3)-D-Gal-(β1-4)-D-Glu] | 0.8 | 0.0 | 0.5 | 0.3 | 0.5 | 0.5 | 0.0 | 0.0 | 0.4 | 0.0 |  | 0.0 | 2.0 | 0.3 | 0.2 | 0.3 | 0.0 | 0.0 | 0.0 | 0.0
6 | OC[C@H]1O[C@@H](O[C@H]2[C@H](O)[C@@H](O)C(O)O[C@@H]2CO)[C@H](O)[C@@H](O)[C@H]1O (some centres unmarked) [Lactose] | 48.4 | 0.7 | 1.9 | 0.4 | 0.4 | 0.5 | 0.4 | 0.3 | 0.5 | 0.3 | 30.9 | 0.3 | 5.3 | 0.6 | 0.3 | 0.4 | 0.4 | 0.3 | 0.5 | 0.3

Results, then the compound that gave them:

Row | Peak areas (Comp. Ex. 1 sample, 0 h) | Peak areas [1] | Peak areas [2] | Peak areas [3] | Peak areas [4] | Peak areas [5] | Peak areas [6] | Peak areas [7] | Peak areas [8] | Peak areas [9] | Peak areas (Example 2 sample, 0 h) | Peak areas (Example 2 sample, 6 h, Donor A) | Peak areas (Example 2 sample, 6 h, Donor B) | Peak areas (Example 2 sample, 6 h, Donor C) | Peak areas [10] | Peak areas [11] | Peak areas [12] | Peak areas [13] | Peak areas [14] | Peak areas [15] | Structure (SMILES)
7 | 16.2 | 0.0 | 0.0 | 0.0 | 0.0 | 0.0 | 0.0 | 0.0 | 0.0 | 0.0 | 24 | 1.3 | 0.0 | 0.0 | 0.0 | 0.0 | 0.0 | 0.0 | 0.0 | 0.0 | OC[C@H]1O[C@@H](OC[C@H]2OC(O)[C@H](O)[C@@H](O)[C@@H]2O)[C@H](O)[C@@H](O)[C@H]1O (some centres unmarked) [Allolactos, Allolactose]
8 | 0.5 | 2.4 | 45.1 | 0.7 | 0.0 | 0.1 | 0.0 | 0.0 | 0.0 | 0.0 | 1.3 | 2.1 | 47.3 | 0.8 | 0.0 | 0.1 | 0.0 | 0.0 | 0.0 | 0.0 | O=C[C@H](O)[C@@H](O)[C@@H](O)[C@H](O)CO [Galactose]
9 | 19.5 | 2.9 | 34.1 | 0.2 | 0.0 | 0.1 | 0.0 | 0.0 | 0.0 | 0.0 | 17.5 | 2.6 | 26.9 | 0.3 | 0.0 | 0.0 | 0.0 | 0.0 | 0.0 | 0.0 | O=C[C@H](O)[C@@H](O)[C@H](O)[C@H](O)CO [Glucose]
